Reference: PubChem BioAssay AID328 (DTP/NCI, 2004)
Where “and” joins values, the source holds several entries; their conditions need not be identical. Identical values can stand only once. Inconclusive results and toxic doses are left out.

System: BDF1 mice, P388 leukemia ip, median survival T/C
Assay: NCI In Vivo Anticancer Drug Screen. Data for tumor model P388 Leukemia (intraperitoneal) in B6D2F1 (BDF1) mice
Conditions: endpoint: median survival time, higher = longer survival
How it was run: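 T/C = treated-group survival ÷ vehicle-control survival; tumour transplanted into mice before dosing.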

[1] = dose: 50.0 mg/kg/injection, schedule: Q01DX009 (ip), vehicle: saline with Tween-80
[2] = dose: 100.0 mg/kg/injection, schedule: Q01DX009 (ip), vehicle: saline with Tween-80
[3] = dose: 200.0 mg/kg/injection, schedule: Q01DX009 (ip), vehicle: saline with Tween-80
[4] = dose: 400.0 mg/kg/injection, schedule: Q01DX009 (ip), vehicle: saline with Tween-80
[5] = dose: 6.25 mg/kg/injection, schedule: Q01DX009 (ip), vehicle: saline
[6] = dose: 50.0 mg/kg/injection, schedule: Q04DX003 (ip), vehicle: saline with Tween-80
[7] = dose: 100.0 mg/kg/injection, schedule: Q04DX003 (ip), vehicle: saline with Tween-80
[8] = dose: 200.0 mg/kg/injection, schedule: Q04DX003 (ip), vehicle: saline with Tween-80
[9] = dose: 400.0 mg/kg/injection, schedule: Q04DX003 (ip), vehicle: saline with Tween-80

With `NC1=NC(=O)NC1(c1ccccc1)c1ccccc1` the T/C [1] was 107 % of control, the T/C [2] was 91 % of control and the T/C [3] was 90 % of control. For the same compound, the T/C [4] was 94 % of control.

With `CCOc1ccc2nc(S(N)(=O)=O)sc2c1` the T/C (dose: 100.0 mg/kg/injection, schedule: Q01DX009 (ip), vehicle: Klucel (hydroxypropylcellulose) (HPC)) was 114 % of control, the T/C (dose: 100.0 mg/kg/injection, schedule: Q04DX003 (ip), vehicle: Klucel (hydroxypropylcellulose) (HPC)) was 104 % of control and the T/C (dose: 200.0 mg/kg/injection, schedule: Q01DX009 (ip), vehicle: Klucel (hydroxypropylcellulose) (HPC)) was 114 % of control. For the same compound, the T/C (dose: 200.0 mg/kg/injection, schedule: Q04DX003 (ip), vehicle: Klucel (hydroxypropylcellulose) (HPC)) was 104 % of control, the T/C (dose: 400.0 mg/kg/injection, schedule: Q01DX009 (ip), vehicle: Klucel (hydroxypropylcellulose) (HPC)) was 109 % of control and the T/C (dose: 400.0 mg/kg/injection, schedule: Q04DX003 (ip), vehicle: Klucel (hydroxypropylcellulose) (HPC)) was 95 % of control.

For `CC=C(/C(=C/C)c1ccc(O)cc1)c1ccc(O)cc1`, the T/C (dose: 66.0 mg/kg/injection, schedule: Q01DX009 (ip), vehicle: saline with Tween-80) was 100 % of control, the T/C [2] was 109 % of control and the T/C (dose: 150.0 mg/kg/injection, schedule: Q01DX009 (ip), vehicle: saline with Tween-80) was 118 % of control.

With `CC(=O)Nc1cc(N(CCOS(C)(=O)=O)CCOS(C)(=O)=O)ccc1N=O` the T/C (dose: 0.7 mg/kg/injection, schedule: Q04DX003 (ip), vehicle: saline with Tween-80) was 179 % of control, the T/C (dose: 1.1 mg/kg/injection, schedule: Q04DX003 (ip), vehicle: saline with Tween-80) was 212 % of control and the T/C (dose: 1.6 mg/kg/injection, schedule: Q04DX003 (ip), vehicle: saline with Tween-80) was 208 % of control. For the same compound, the T/C (dose: 1.65 mg/kg/injection, schedule: Q04DX003 (ip), vehicle: saline with Tween-80) was 150 % of control and 191 % of control, the T/C (dose: 2.5 mg/kg/injection, schedule: Q04DX003 (ip), vehicle: saline with Tween-80) was 175 % of control and the T/C (dose: 3.75 mg/kg/injection, schedule: Q04DX003 (ip), vehicle: saline with Tween-80) was 104 % of control.

`CCCCCCCCCCCCCCCCCC[N+](C)(C)C` was tested, and the T/C (dose: 1.56 mg/kg/injection, schedule: Q04DX003 (ip), vehicle: saline) was 115 % of control, the T/C (dose: 3.12 mg/kg/injection, schedule: Q04DX003 (ip), vehicle: saline) was 115 % of control and the T/C (dose: 4.12 mg/kg/injection, schedule: Q01DX009 (ip), vehicle: saline) was 115 % of control. For the same compound, the T/C [5] was 90 % of control, the T/C (dose: 6.25 mg/kg/injection, schedule: Q04DX003 (ip), vehicle: saline) was 120 % of control and the T/C (dose: 9.2 mg/kg/injection, schedule: Q04DX003 (ip), vehicle: saline) was 104 % of control. For the same compound, the T/C (dose: 14.0 mg/kg/injection, schedule: Q04DX003 (ip), vehicle: saline) was 100 % of control and the T/C (dose: 21.0 mg/kg/injection, schedule: Q04DX003 (ip), vehicle: saline) was 90 % of control.

For `CC(=O)n1cc(C2CC(=O)OC3=C2CC(=O)C(C)(C)C3)c2ccccc21` (stereo not drawn), the T/C [6] was 100 % of control, the T/C [7] was 88 % of control and 95 % of control and the T/C [8] was 94 % of control and 95 % of control. The T/C [9] was 94 % of control and 96 % of control.

With `Cc1nc2nc(N)[nH]c(=O)c2[nH]c1=O` the T/C [2] was 104 % of control, the T/C [3] was 100 % of control and the T/C [4] was 109 % of control.

For `Cc1ccc(S(=O)(=O)N2CCC(C(=O)O)(c3ccccc3)CC2)cc1`, the T/C [7] was 100 % of control, the T/C [8] was 95 % of control and the T/C [9] was 95 % of control.

In the case of `CCOC(=N)c1cn(C2OC(CO)C(O)C2O)c2ncnc(N)c12` (stereo not drawn), the T/C (dose: 0.12 mg/kg/injection, schedule: Q01DX009 (ip), vehicle: saline with Tween-80) is reported as 168 % of control, the T/C (dose: 0.22 mg/kg/injection, schedule: Q01DX009 (ip), vehicle: saline) is reported as 174 % of control and the T/C (dose: 0.25 mg/kg/injection, schedule: Q01DX009 (ip), vehicle: saline with Tween-80) is reported as 195 % of control. The T/C (dose: 0.33 mg/kg/injection, schedule: Q01DX009 (ip), vehicle: saline) was 196 % of control, the T/C (dose: 0.5 mg/kg/injection, schedule: Q01DX009 (ip), vehicle: saline with Tween-80) was 163 % of control and the T/C (dose: 0.5 mg/kg/injection, schedule: Q01DX009 (ip), vehicle: saline) was 186 % of control. The T/C (dose: 0.5 mg/kg/injection, schedule: Q04DX003 (ip), vehicle: saline with Tween-80) was 150 % of control, the T/C (dose: 0.75 mg/kg/injection, schedule: Q01DX009 (ip), vehicle: saline) was 196 % of control and the T/C (dose: 0.8 mg/kg/injection, schedule: Q04DX003 (ip), vehicle: saline with Tween-80) was 190 % of control. The T/C (dose: 1.2 mg/kg/injection, schedule: Q04DX003 (ip), vehicle: saline with Tween-80) was 272 % of control, the T/C (dose: 1.8 mg/kg/injection, schedule: Q04DX003 (ip), vehicle: saline with Tween-80) was 190 % of control and 209 % of control and the T/C (dose: 2.6 mg/kg/injection, schedule: Q04DX003 (ip), vehicle: saline with Tween-80) was 200 % of control. The T/C (dose: 6.0 mg/kg/injection, schedule: Q04DX003 (ip), vehicle: saline with Tween-80) was 90 % of control, the T/C (dose: 5.3 micrograms/kg/injection, schedule: Q01DX009 (ip), vehicle: saline) was 106 % of control and the T/C (dose: 8.0 micrograms/kg/injection, schedule: Q01DX009 (ip), vehicle: saline) was 115 % of control. For the same compound, the T/C (dose: 15.0 micrograms/kg/injection, schedule: Q01DX009 (ip), vehicle: saline with Tween-80) was 120 % of control, the T/C (dose: 27.0 micrograms/kg/injection, schedule: Q01DX009 (ip), vehicle: saline) was 152 % of control and the T/C (dose: 40.0 micrograms/kg/injection, schedule: Q01DX009 (ip), vehicle: saline) was 159 % of control. For the same compound, the T/C (dose: 60.0 micrograms/kg/injection, schedule: Q01DX009 (ip), vehicle: saline) was 169 % of control, the T/C (dose: 66.0 micrograms/kg/injection, schedule: Q01DX009 (ip), vehicle: saline) was 155 % of control and the T/C (dose: 100.0 micrograms/kg/injection, schedule: Q01DX009 (ip), vehicle: saline) was 154 % of control.

`O=C(Nc1nncs1)c1ccncc1` was tested, and the T/C (dose: 50.0 mg/kg/injection, schedule: Q04DX002 (ip), vehicle: saline with Tween-80) was 90 % of control, the T/C (dose: 200.0 mg/kg/injection, schedule: Q04DX002 (ip), vehicle: saline with Tween-80) was 152 % of control and the T/C (dose: 400.0 mg/kg/injection, schedule: Q04DX002 (ip), vehicle: saline with Tween-80) was 100 % of control.

With `COc1cc(/C=C2\SC(=S)N(CCCN3CCOCC3)C2=O)ccc1O` the T/C (dose: 12.5 mg/kg/injection, schedule: Q01DX009 (ip), vehicle: suspension in saline) was 86 % of control, the T/C (dose: 25.0 mg/kg/injection, schedule: Q01DX009 (ip), vehicle: suspension in saline) was 101 % of control and the T/C (dose: 50.0 mg/kg/injection, schedule: Q01DX009 (ip), vehicle: suspension in saline) was 99 % of control.

For `O=[N+]([O-])c1ccc(Sc2ccc([N+](=O)[O-])cc2)cc1`, the T/C [1] was 90 % of control, the T/C [6] was 100 % of control and the T/C [2] was 95 % of control. The T/C [3] was 90 % of control and the T/C [8] was 100 % of control.

With `Nc1nc(=O)c2[nH]cnc2n1O` the T/C (dose: 13.75 mg/kg/injection, schedule: Q01DX009 (ip), vehicle: saline) was 90 % of control and the T/C (dose: 27.5 mg/kg/injection, schedule: Q01DX009 (ip), vehicle: saline) was 95 % of control.

`CCN(CC)CCNC(=S)N/N=C(C)\C(C)=N/NC(=S)NCCN(CC)CC` was tested, and the T/C [5] was 105 % of control and the T/C (dose: 12.5 mg/kg/injection, schedule: Q01DX009 (ip), vehicle: saline) was 105 % of control.

`COc1cc2c3c(c4ccc(OC)c(OC)c4c2cc1OC)CN1CCC[C@@H]1C3` was tested, and the T/C (dose: 1.25 mg/kg/injection, schedule: Q01DX010 (ip), vehicle: saline) was 113 % of control, the T/C (dose: 2.5 mg/kg/injection, schedule: Q01DX010 (ip), vehicle: saline) was 154 % of control and the T/C (dose: 6.0 mg/kg/injection, schedule: Q01DX010 (ip), vehicle: water) was 150 % of control. The T/C (dose: 8.0 mg/kg/injection, schedule: Q01DX010 (ip), vehicle: water) was 170 % of control, the T/C (dose: 10.0 mg/kg/injection, schedule: Q01DX010 (ip), vehicle: saline) was 150 % of control and the T/C (dose: 10.0 mg/kg/injection, schedule: Q01DX010 (ip), vehicle: water) was 90 % of control.

`CN=C(N)c1ccc(N=C(N)c2ccc(C(N)=Nc3ccc(C(N)=NC)cc3)cc2)cc1` was tested, and the T/C (dose: 13.2 mg/kg/injection, schedule: Q01DX009 (ip), vehicle: saline) was 150 % of control and 172 % of control, the T/C (dose: 20.0 mg/kg/injection, schedule: Q01DX009 (ip), vehicle: saline) was 240 % of control and 218 % of control and the T/C (dose: 30.0 mg/kg/injection, schedule: Q01DX009 (ip), vehicle: saline) was 268 % of control and 218 % of control.

In the case of `Nc1nc(N)c2cc(S(=O)(=O)c3ccccc3)ccc2n1`, the T/C [1] is reported as 92 % of control.
